Results taken from patent publication US20220378706A1, “PHARMACEUTICAL COMPOSITION COMPRISING PDE9 INHIBITOR” (Eisai R&D Management Co., Ltd., priority 2017, published 2022).
Like-named read-outs stand apart in the source and are kept apart here.

Experiment: Single dose clinical study: plasma Compound A pharmacokinetics
Assay type: in vivo, human
Conditions: human, plasma, po, plasma
Method: This was a single center, single dose, randomized, double blind, placebo controlled study in healthy subjects. It consisted of 4 parts: Parts A, B, C, and D. Each of the four study parts had 2 phases: Prerandomization Phase and Randomization Phase. The Prerandomization Phase lasted up to 30 days and consisted of a Screening Period and a Baseline Period, during which each subject's study eligibility was determined and baseline assessments were performed.
In Part A, there were 8 sequential cohorts of healthy adult subjects (18-50 years of age). Subjects were randomly assigned to Compound A or placebo in a ratio of 6:2, respectively. Subjects in the Compound A cohorts were treated with single ascending doses of 10, 25, 50, 100, 200, 400, 800, or 1200 mg.
In Part B, there were 4 cohorts of healthy adult subjects (18-50 years of age). There were 8 subjects in Cohort 1, with 6 subjects randomly assigned to receive single doses of Compound A (400 mg) and 2 subjects randomly assigned to receive placebo. There were 7 subjects in Cohort 2 and Cohort 3, each with 6 subjects randomly assigned to receive single doses of Compound A (100 and 200 mg, respectively) and 1 subject randomly assigned to receive placebo. The dose of 100 mg selected in Cohort 2 was based on preliminary analysis of Cohort 1 data; this dose was predicted from PK/PD modeling to achieve a sustained CSF cGMP increase from baseline of approximately 200% when administered to steady state, and thereby provided a potentially therapeutic dose for further evaluation in future studies. There were 7 subjects in Cohort 4, with 6 subjects randomly assigned to receive a single dose of Compound A (50 mg [n=3] or 75 mg [n=3]) and 1 subject randomly assigned to receive placebo. The doses for Cohorts 3 and 4 were selected based on PK/PD modeling of the data in Cohorts 1 and 2.
Subjects in Cohort 2 who had received Compound A 100 mg or placebo under fasted conditions (1st Treatment Period) also participated in an evaluation of food effect on the PK of Compound A (2nd Treatment Period). After a washout period of at least 13 days (or 5 half-lives of Compound A, whichever was longer), subjects were admitted to the clinic for baseline assessments (2nd Baseline Period) and then received a single dose of the same treatment (Compound A 100 mg or placebo) after consuming a high fat and high calorie meal over 30 minutes. Blood PK samples were collected at prespecified time points. Safety evaluations were also assessed. CSF was not collected for PD evaluation during the 2nd Treatment Period. A Follow Up Visit occurred on Day 10 of Treatment Period 2.
In Part C, there was 1 cohort of 8 healthy elderly subjects (65 to 85 years of age) randomly assigned to receive a single dose of Compound A 100 mg or placebo in a ratio of 6:2, respectively.
In Part D, 3 cohorts of healthy adult Japanese subjects were randomized in parallel. There were 7 subjects in each cohort and subjects were randomly assigned to receive single doses of Compound A (25, 100, or 400 mg) or placebo in a ratio of 6:1, respectively.
Blood samples for determination of plasma Compound A concentrations were collected from predose to 216 hours postdose. On Day 1, blood PK samples were collected at predose and postdose 0.5 (30 minutes), 1, 1.5, 2, 3, 4, 5, 6, 8, 12, and 18 hours. Thereafter, samples were collected on Day 2 (24 and 36 hours postdose), Day 3 (48 hours postdose), Day 4 (72 hours postdose), Day 5 (96 hours postdose), Day 6 (120 hours postdose), Day 7 (144 hours postdose), and Day 10 (216 hours postdose).
Blood samples for determination of plasma Compound A concentrations were collected from predose to 216 hours postdose. For all cohorts, blood PK samples were collected on Day 1 at predose and postdose at 0.5 (30 minutes), 1, 1.5, 2, 3, 4, 5, 6, 8, 10, 12, and 18 hours. […]

COc1ncc(C)c(-c2ccc3c(c2)[nH]c(=O)c2cnn([C@H]4CCOC4)c23)c1C [Compound A, (S)-7-(2-methoxy-3,5-dimethylpyridin-4-yl)-1-(tetrahydrofuran-3-yl)-1H-pyrazolo[4,3-c]quin olin-4(5H)-one]
Cmax (100 mg, Japanese Subjects (Part D), single oral 100 mg, read-out: Cmax GM (% CV)): 492 ng/mL | Vd/F (100 mg, Japanese Subjects (Part D), single oral 100 mg, read-out: Vz/F GM (% CV)): 240 L | half-life (100 mg, Japanese Subjects (Part D), single oral 100 mg, read-out: t1/2 Mean (SD) (converted)): 23.9 h | Tmax (100 mg, Japanese Subjects (Part D), single oral 100 mg, read-out: tmax Median): 2.52 h | AUC(0-inf) (100 mg, Non-Japanese Subjects (Parts A,B), single oral 100 mg, read-out: AUC(0-inf) GM): 15000 ng·h/mL | Cmax (100 mg, Non-Japanese Subjects (Parts A,B), single oral 100 mg, read-out: Cmax GM (% CV)): 373 ng/mL | Vd/F (100 mg, Non-Japanese Subjects (Parts A,B), single oral 100 mg, read-out: Vz/F GM (% CV)): 268 L | half-life (100 mg, Non-Japanese Subjects (Parts A,B), single oral 100 mg, read-out: t1/2 Mean (SD) (converted)): 28.6 h | Tmax (100 mg, Non-Japanese Subjects (Parts A,B), single oral 100 mg, read-out: tmax Median): 2.99 h | AUC(0-t) (100 mg, Part B 100 mg cohort, single oral 100 mg, Fasted, read-out: AUC (0-24 h) GM (% CV)): 6140 ng·h/mL | AUC(0-t) (100 mg, Part B 100 mg cohort, single oral 100 mg, Fasted, read-out: AUC (0-30 h) GM (% CV)): 7360 ng·h/mL | AUC(0-t) (100 mg, Part B 100 mg cohort, single oral 100 mg, Fasted, read-out: AUC (0-72 h) GM (% CV)): 12200 ng·h/mL | AUC(0-inf) (100 mg, Part B 100 mg cohort, single oral 100 mg, Fasted, read-out: AUC (0-inf) GM (% CV)): 14500 ng·h/mL | AUC(0-t) (100 mg, Part B 100 mg cohort, single oral 100 mg, Fasted, read-out: AUC (0-t) GM (% CV)): 14400 ng·h/mL | Cmax (100 mg, Part B 100 mg cohort, single oral 100 mg, Fasted, read-out: Cmax GM (%CV)): 371 ng/mL | Vd/F (100 mg, Part B 100 mg cohort, single oral 100 mg, Fasted, read-out: Vz/F GM (% CV)): 252 L | half-life (100 mg, Part B 100 mg cohort, single oral 100 mg, Fasted, read-out: t1/2 Mean (SD) (converted)): 25.7 h | Tmax (100 mg, Part B 100 mg cohort, single oral 100 mg, Fasted, read-out: tmax Median (Min, Max)): 2.99 h | AUC(0-t) (100 mg, Part B 100 mg cohort, single oral 100 mg, Fed (high-fat meal), read-out: AUC (0-24 h) GM (% CV)): 7610 ng·h/mL | AUC(0-t) (100 mg, Part B 100 mg cohort, single oral 100 mg, Fed (high-fat meal), read-out: AUC (0-30 h) GM (% CV)): 8980 ng·h/mL | AUC(0-t) (100 mg, Part B 100 mg cohort, single oral 100 mg, Fed (high-fat meal), read-out: AUC (0-72 h) GM (% CV)): 14500 ng·h/mL | AUC(0-inf) (100 mg, Part B 100 mg cohort, single oral 100 mg, Fed (high-fat meal), read-out: AUC (0-inf) GM (% CV)): 17300 ng·h/mL | AUC(0-t) (100 mg, Part B 100 mg cohort, single oral 100 mg, Fed (high-fat meal), read-out: AUC (0-t) GM (% CV)): 17100 ng·h/mL | Cmax (100 mg, Part B 100 mg cohort, single oral 100 mg, Fed (high-fat meal), read-out: Cmax GM (%CV)): 536 ng/mL | Vd/F (100 mg, Part B 100 mg cohort, single oral 100 mg, Fed (high-fat meal), read-out: Vz/F GM (% CV)): 212 L | half-life (100 mg, Part B 100 mg cohort, single oral 100 mg, Fed (high-fat meal), read-out: t1/2 Mean (SD) (converted)): 26 h | Tmax (100 mg, Part B 100 mg cohort, single oral 100 mg, Fed (high-fat meal), read-out: tmax Median (Min, Max)): 3.49 h | AUC(0-t) (100 mg, healthy adults (Parts A,B), single oral 100 mg, fasted, read-out: AUC(0-24 h) GM): 5730 ng·h/mL | AUC(0-t) (100 mg, healthy adults (Parts A,B), single oral 100 mg, fasted, read-out: AUC(0-30 h) GM): 6890 ng·h/mL | AUC(0-t) (100 mg, healthy adults (Parts A,B), single oral 100 mg, fasted, read-out: AUC(0-72 h) GM): 11900 ng·h/mL | AUC(0-inf) (100 mg, healthy adults (Parts A,B), single oral 100 mg, fasted, read-out: AUC(0-inf) GM): 15000 ng·h/mL | AUC(0-t) (100 mg, healthy adults (Parts A,B), single oral 100 mg, fasted, read-out: AUC(0-t) GM): 14800 ng·h/mL | Cmax (100 mg, healthy adults (Parts A,B), single oral 100 mg, fasted, read-out: Cmax GM): 373 ng/mL | Vd/F (100 mg, healthy adults (Parts A,B), single oral 100 mg, fasted, read-out: Vz/F GM): 268 L | half-life (100 mg, healthy adults (Parts A,B), single oral 100 mg, fasted, read-out: t1/2 Mean (converted)): 28.6 h | Tmax (100 mg, healthy adults (Parts A,B), single oral 100 mg, fasted, read-out: tmax Median): 2.99 h | AUC(0-inf) (100 mg, healthy elderly subjects (Part C), single oral 100 mg, read-out: AUC (0-inf) GM (% CV)): 21300 ng·h/mL | Cmax (100 mg, healthy elderly subjects (Part C), single oral 100 mg, read-out: Cmax GM (% CV)): 543 ng/mL | Vd/F (100 mg, healthy elderly subjects (Part C), single oral 100 mg, read-out: Vz/F GM (% CV)): 253 L | half-life (100 mg, healthy elderly subjects (Part C), single oral 100 mg, read-out: t1/2 Mean (SD) (converted)): 38.1 h | Tmax (100 mg, healthy elderly subjects (Part C), single oral 100 mg, read-out: tmax Median (Min, Max)): 2.6 h | AUC(0-t) (200 mg, healthy adults (Parts A,B), single oral 200 mg, fasted, read-out: AUC(0-24 h) GM): 7800 ng·h/mL | AUC(0-t) (200 mg, healthy adults (Parts A,B), single oral 200 mg, fasted, read-out: AUC(0-30 h) GM): 9440 ng·h/mL | AUC(0-t) (200 mg, healthy adults (Parts A,B), single oral 200 mg, fasted, read-out: AUC(0-72 h) GM): 16800 ng·h/mL | AUC(0-inf) (200 mg, healthy adults (Parts A,B), single oral 200 mg, fasted, read-out: AUC(0-inf) GM): 22400 ng·h/mL | AUC(0-t) (200 mg, healthy adults (Parts A,B), single oral 200 mg, fasted, read-out: AUC(0-t) GM): 22000 ng·h/mL | Cmax (200 mg, healthy adults (Parts A,B), single oral 200 mg, fasted, read-out: Cmax GM): 539 ng/mL | Vd/F (200 mg, healthy adults (Parts A,B), single oral 200 mg, fasted, read-out: Vz/F GM): 384 L | half-life (200 mg, healthy adults (Parts A,B), single oral 200 mg, fasted, read-out: t1/2 Mean (converted)): 30.9 h | Tmax (200 mg, healthy adults (Parts A,B), single oral 200 mg, fasted, read-out: tmax Median): 2 h | AUC(0-inf) (400 mg, Japanese Subjects (Part D), single oral 400 mg, read-out: AUC(0-inf) GM): 46500 ng·h/mL | Cmax (400 mg, Japanese Subjects (Part D), single oral 400 mg, read-out: Cmax GM (% CV)): 1180 ng/mL | Vd/F (400 mg, Japanese Subjects (Part D), single oral 400 mg, read-out: Vz/F GM (% CV)): 364 L | half-life (400 mg, Japanese Subjects (Part D), single oral 400 mg, read-out: t1/2 Mean (SD) (converted)): 30 h | Tmax (400 mg, Japanese Subjects (Part D), single oral 400 mg, read-out: tmax Median): 2.25 h
